According to ChEMBL document CHEMBL6109116, “Peripherally Restricted Fused Heterocyclic Peptidomimetic Multifunctional Opioid Agonists as Novel, Potent Analgesics” (ACS Med Chem Lett, 2025):
Active and inactive are the calls of the source. No cut-off for these calls is given here.

Tests used:
[1] = molecular target: Kappa-type opioid receptor (Cavia porcellus, UniProt P41144); assay: Displacement of [3H]U69593 from guinea pig KOR assessed as inhibition constant incubated for 2 hrs by Wallac Betaplate liquid scintillation counting analysis
Sequence of Kappa-type opioid receptor (P41144 whole entry): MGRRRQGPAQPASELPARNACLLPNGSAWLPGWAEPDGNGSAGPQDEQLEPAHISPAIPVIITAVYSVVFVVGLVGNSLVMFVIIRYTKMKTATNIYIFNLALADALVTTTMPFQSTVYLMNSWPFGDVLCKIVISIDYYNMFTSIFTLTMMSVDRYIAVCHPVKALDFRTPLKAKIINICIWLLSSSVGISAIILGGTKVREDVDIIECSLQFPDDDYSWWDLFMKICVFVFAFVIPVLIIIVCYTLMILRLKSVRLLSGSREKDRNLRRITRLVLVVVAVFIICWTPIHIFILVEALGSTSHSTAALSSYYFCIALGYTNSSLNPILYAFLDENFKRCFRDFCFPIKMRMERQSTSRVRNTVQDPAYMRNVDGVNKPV

Mu-type opioid receptor = Mu-type opioid receptor (Rattus norvegicus, UniProt P33535); assay: Displacement of [3H]-DAMGO from rat cortical membrane MOR assessed as inhibition constant incubated for 2 hrs by Wallac Betaplate liquid scintillation counting analysis; format: cell membranes, Cortex
Sequence of Mu-type opioid receptor (P33535 whole entry): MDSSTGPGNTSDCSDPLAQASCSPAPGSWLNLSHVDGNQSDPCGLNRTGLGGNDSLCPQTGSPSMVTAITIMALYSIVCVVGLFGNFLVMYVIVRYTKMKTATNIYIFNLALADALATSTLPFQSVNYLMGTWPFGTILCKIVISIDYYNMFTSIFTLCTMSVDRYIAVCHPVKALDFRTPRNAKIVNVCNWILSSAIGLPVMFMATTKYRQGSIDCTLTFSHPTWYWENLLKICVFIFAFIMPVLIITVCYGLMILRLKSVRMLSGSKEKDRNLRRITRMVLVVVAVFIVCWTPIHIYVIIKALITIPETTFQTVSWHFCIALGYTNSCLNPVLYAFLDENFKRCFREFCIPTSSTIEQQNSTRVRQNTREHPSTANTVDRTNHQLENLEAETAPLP

[2] = molecular target: Delta-type opioid receptor (Rattus norvegicus, UniProt P33533); assay: Displacement of [3H]-DPDPE from rat cortical membrane DOR assessed as inhibition constant incubated for 2.5 hrs by Wallac Betaplate liquid scintillation counting analysis; format: cell membranes, Cortex
Sequence of Delta-type opioid receptor (P33533 whole entry): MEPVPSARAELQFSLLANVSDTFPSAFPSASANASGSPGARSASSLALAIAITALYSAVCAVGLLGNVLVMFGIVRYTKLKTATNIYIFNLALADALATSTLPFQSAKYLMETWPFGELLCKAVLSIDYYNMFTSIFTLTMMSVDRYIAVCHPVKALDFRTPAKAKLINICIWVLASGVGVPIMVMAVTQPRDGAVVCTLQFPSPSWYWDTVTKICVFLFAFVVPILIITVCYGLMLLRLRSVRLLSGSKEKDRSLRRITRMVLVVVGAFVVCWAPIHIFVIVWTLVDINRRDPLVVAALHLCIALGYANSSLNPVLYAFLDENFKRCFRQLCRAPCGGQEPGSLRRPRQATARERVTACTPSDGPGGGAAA

[3] = Toxicity in C57BL/6J mouse assessed as respiratory depression at 15 mg/kg, ip measured after 20 mins; format: organism-based; details: in vivo
Mus musculus [4] = assay: Antinociceptive activity in male C57BL/6J mouse assessed as peripheral restriction at 15 mg/kg, ip by 55 degreeC warm-water tail-withdrawal assay; format: functional
[5] = Selectivity ratio of ED50 for antinociceptive activity in male C57BL/6J mouse at 10 mg/kg, ip measured after 10 min by 55 degreeC warm-water tail-withdrawal assay to ED50 for antinociceptive activity in male C57BL/6J mouse preadministered with compound for 10 mins followed by acetic acid administration and measured after 15 to 30 min by Acetic acid stretching assay (AcAS); format: functional
Mus musculus [6] = assay: Antinociceptive activity in male C57BL/6J mouse at 15 mg/kg, po by 55 degreeC warm-water tail-withdrawal assay; format: functional, organism-based; details: time <= 60.0 min
[7] = molecular target: Mu-type opioid receptor (Rattus norvegicus) (UniProt P33535); assay: Partial agonist activity at rat MOR extracted from CHO cell membrane assessed as stimulation of [35S]GTPgammaS binding at 10 uM incubated for 60 mins by liquid scintillation counting assay; format: functional, cell membranes; details: filed as partial agonist
Sequence of Mu-type opioid receptor (Rattus norvegicus) (P33535 whole entry): as the sequence (P33535 whole entry) above

Mus musculus [8] = assay: Antinociceptive activity in male C57BL/6J mouse at 10 nmol, ICV administered for 8 hrs by 55 degreeC warm-water tail-withdrawal assay; format: functional, organism-based
Mus musculus [9] = assay: Antinociceptive activity in male C57BL/6J mouse assessed as peripheral restriction at 15 mg/kg, ip pre-treated with naloxone methiodide at 30 mg/kg, SC for 30 min by 55 degreeC warm-water tail-withdrawal assay; format: functional
Mus musculus [10] = assay: Antinociceptive activity in MOR knockout male C57BL/6J mouse model at 10 nmol, ICV administered for 10 mins by 55 degreeC warm-water tail-withdrawal assay; format: functional, organism-based
[11] = Toxicity in C57BL/6J mouse assessed as effect on locomotor activity at 15 mg/kg, ip measured up to 120 min; format: organism-based; details: in vivo, 2 h
[12] = Toxicity in C57BL/6J mouse assessed as increase in ambulation at 15 mg/kg, ip measured up to 120 min; format: organism-based; details: in vivo, 2 h
Mus musculus [13] = species: Mus musculus; assay: Antinociceptive activity in male C57BL/6J mouse measured after 10 min by 55 degreeC warm-water tail-withdrawal assay; format: functional
Mus musculus [14] = assay: Antinociceptive activity in KOR knockout male C57BL/6J mouse model at 10 nmol, ICV administered for 10 mins by 55 degreeC warm-water tail-withdrawal assay; format: functional, organism-based
Mus musculus [15] = assay: Antinociceptive activity in male C57BL/6J mouse assessed as peripheral restriction at 15 mg/kg, ip pre-treated with naloxone methiodide at 30 nmol, ICV for 30 min by 55 degreeC warm-water tail-withdrawal assay; format: functional
Mus musculus [16] = assay: Antinociceptive activity in male C57BL/6J mouse preadministered with compound for 10 mins followed by acetic acid administration and measured after 15 to 30 min by Acetic acid stretching assay (AcAS); format: functional; details: time 25-40 min
Mus musculus [17] = assay: Antinociceptive activity in wild type male C57BL/6J mouse model at 10 nmol, ICV preadministered with naltrindole for 20 mins followed by compound administration for 10 mins; format: functional, organism-based
[18] = molecular target: Delta-type opioid receptor (Mus musculus) (UniProt P32300); assay: Partial agonist activity at mouse DOR extracted from CHO cell membrane assessed as stimulation of [35S]GTPgammaS binding at 1 to 10 uM incubated for 60 mins by liquid scintillation counting assay; format: functional, cell membranes; details: filed as partial agonist, dose 1-10 µM
Sequence of Delta-type opioid receptor (Mus musculus) (P32300 whole entry): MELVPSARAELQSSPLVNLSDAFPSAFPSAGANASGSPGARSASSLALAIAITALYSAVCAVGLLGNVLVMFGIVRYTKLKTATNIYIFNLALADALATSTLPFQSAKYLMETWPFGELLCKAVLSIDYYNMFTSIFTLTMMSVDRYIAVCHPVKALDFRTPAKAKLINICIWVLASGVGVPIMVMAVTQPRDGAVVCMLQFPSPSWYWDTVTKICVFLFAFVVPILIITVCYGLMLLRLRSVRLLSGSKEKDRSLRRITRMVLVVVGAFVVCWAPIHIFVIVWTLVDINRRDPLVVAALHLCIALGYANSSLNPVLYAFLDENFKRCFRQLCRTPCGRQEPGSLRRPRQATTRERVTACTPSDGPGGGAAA

[19] = molecular target: Kappa-type opioid receptor (Homo sapiens) (UniProt P41145); assay: Partial agonist activity at human KOR extracted from CHO cell membrane assessed as stimulation of [35S]GTPgammaS binding at 1 to 10 uM incubated for 60 mins by liquid scintillation counting assay; format: functional, cell membranes; details: filed as partial agonist, dose 1-10 µM
Sequence of Kappa-type opioid receptor (Homo sapiens) (P41145 whole entry): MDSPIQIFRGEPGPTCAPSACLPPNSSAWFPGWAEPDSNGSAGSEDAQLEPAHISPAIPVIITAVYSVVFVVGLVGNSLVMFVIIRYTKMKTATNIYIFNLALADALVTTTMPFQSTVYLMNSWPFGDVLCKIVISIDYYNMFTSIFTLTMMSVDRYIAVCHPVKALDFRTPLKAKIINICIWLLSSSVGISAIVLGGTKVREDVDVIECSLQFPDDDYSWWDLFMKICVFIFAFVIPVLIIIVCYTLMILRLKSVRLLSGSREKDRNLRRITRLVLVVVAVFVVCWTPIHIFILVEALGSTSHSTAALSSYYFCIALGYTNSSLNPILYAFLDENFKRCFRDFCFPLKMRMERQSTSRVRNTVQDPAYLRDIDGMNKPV

[20] = Toxicity in C57BL/6J mouse assessed as increase in ambulation at 30 mg/kg, ip measured up to 120 min; format: organism-based; details: in vivo, 2 h
[21] = Toxicity in C57BL/6J mouse assessed as respiratory depression at 30 mg/kg, ip measured after 20 mins; format: organism-based; details: in vivo
Mus musculus [22] = assay: Antinociceptive activity in male C57BL/6J mouse assessed as peripheral restriction at 30 mg/kg, ip pre-treated with naloxone methiodide at 30 nmol, ICV for 30 min by 55 degreeC warm-water tail-withdrawal assay; format: functional
Mus musculus [23] = assay: Antinociceptive activity in male C57BL/6J mouse assessed as peripheral restriction at 30 mg/kg, ip pre-treated with naloxone methiodide at 30 mg/kg, SC for 30 min by 55 degreeC warm-water tail-withdrawal assay; format: functional
[24] = Toxicity in C57BL/6J mouse assessed as effect on locomotor activity at 30 mg/kg, ip measured up to 120 min; format: organism-based; details: in vivo, 2 h
Mus musculus [25] = assay: Antinociceptive activity in male C57BL/6J mouse assessed as peripheral restriction at 30 mg/kg, ip by 55 degreeC warm-water tail-withdrawal assay; format: functional
Mus musculus [26] = assay: Antinociceptive activity in male C57BL/6J mouse at 30 mg/kg, po by 55 degreeC warm-water tail-withdrawal assay; format: functional, organism-based; details: time <= 60.0 min
[27] = molecular target: Mu-type opioid receptor (Rattus norvegicus) (UniProt P33535); assay: Partial agonist activity at rat MOR extracted from CHO cell membrane assessed as stimulation of [35S]GTPgammaS binding at 1 to 10 uM incubated for 60 mins by liquid scintillation counting assay; format: functional, cell membranes; details: dose 1-10 µM
Mus musculus [28] = species: Mus musculus; assay: Acute antinociceptive activity in male C57BL/6J mouse measured after 30 min by 55 degreeC warm-water tail-withdrawal assay; details: 0.5 h
[29] = Toxicity in male C57BL/6J mouse assessed as lethality up to 30 mg/kg, ip measured after 10 min; format: organism-based; details: in vivo
Mus musculus [30] = assay: Antinociceptive activity in male C57BL/6J mouse at 10 mg/kg, ip measured after 10 min by 55 degreeC warm-water tail-withdrawal assay; format: functional, organism-based
[31] = molecular target: Delta-type opioid receptor (Mus musculus) (UniProt P32300); assay: Agonist activity at mouse DOR extracted from CHO cell membrane assessed as stimulation of [35S]GTPgammaS binding at 1 to 10 uM incubated for 60 mins by liquid scintillation counting assay; format: functional, cell membranes; details: filed as agonist, dose 1-10 µM

## CC(C)[C@H]1CN=C2C=C3N(CCc4ccccc4)[C@@H](CN(C)C)CN3[C@@H](Cc3ccc(O)cc3)CN21
[1]
  Ki: 37 nM
Mu-type opioid receptor
  Ki: 26 nM
[2]
  Ki: 4 nM

## CC(C)[C@H]1CN=C2C=C3N4C[C@H](O)C[C@H]4CN3[C@@H](Cc3ccc(O)cc3)CN21
[1]
  Ki: 16 nM
Mu-type opioid receptor
  Ki: 254 nM
[2]
  Ki: 34 nM

## CC(C)C[C@H]1CN=C2C=C3N4CCC[C@H]4CN3[C@@H](Cc3ccc(O)cc3)CN21
[1]
  Ki: 40 nM
Mu-type opioid receptor
  Ki: 169 nM
[2]
  Ki: 10 nM

## CN1CCN(CCN2C(=N)N([C@@H](CCCNC(=N)N)CN3C(=N)NC[C@@H]3Cc3ccc(O)cc3)C[C@@H]2Cc2ccc(O)cc2)CC1
[3]
  Activity: Non-toxic
[1]
  Ki: 87 nM
Mus musculus [4]
  Activity: 89.7%
[5]
  Ratio ED50: 0.78
Mus musculus [6]
  Activity: Time-dependent-effect
[7]
  Activity: Active
Mus musculus [8]
  Activity: Active; Comparable To Morphine And U50,491
Mus musculus [9]
  Activity: 2.5%
Mus musculus [10]
  Activity: inactive
Mu-type opioid receptor
  Ki: 197 nM
[11]
  Activity: Non-toxic
[12]
  Activity: Non-toxic
Mus musculus [13]
  ED50: 3.9 mg/kg
Mus musculus [14]
  Activity: inactive
Mus musculus [15]
  Activity: 10.1%
Mus musculus [16]
  ED50: 4.97 mg/kg
[2]
  Ki: 40 nM
Mus musculus [17]
  Activity: inactive
[18]
  Activity: Active; Weak Partial Agonism Observed
[19]
  Activity: Active

## CC(C)[C@H]1CN=C2C=C3N(CCc4ccccc4)CC[C@H](N(C)C)CN3[C@@H](Cc3ccc(O)cc3)CN21
[1]
  Ki: 25 nM
[20]
  Activity: Non-toxic
[5]
  Ratio ED50: 20.95
[21]
  Activity: Non-toxic
Mus musculus [8]
  Activity: Active; Comparable To Morphine And U50,489
Mus musculus [10]
  Activity: inactive
Mu-type opioid receptor
  Ki: 430 nM
Mus musculus [22]
  Activity: 59.1%
Mus musculus [23]
  Activity: 3.5%
Mus musculus [13]
  ED50: 14 mg/kg
[24]
  Activity: Non-toxic
Mus musculus [25]
  Activity: 87.9%
Mus musculus [14]
  Activity: inactive
Mus musculus [26]
  Activity: Time-dependent-effect
Mus musculus [16]
  ED50: 0.67 mg/kg
[2]
  Ki: 20 nM
Mus musculus [17]
  Activity: inactive
[18]
  Activity: Active; Weak Partial Agonism Observed
[19]
  Activity: Active
[27]
  Activity: Not active; No Significant Activity

## CN1CC[C@]23c4c5ccc(O)c4O[C@H]2[C@@H](O)C=C[C@H]3[C@H]1C5 [MORPHINE]
[5]
  Ratio ED50: 3.75
Mus musculus [28]
  ED50: 3.37 mg/kg
Mus musculus [16]
  ED50: 0.9 mg/kg

## CC(C)C[C@H]1CN2C(=CC3=NC[C@@H](C(C)C)N3C[C@H]2Cc2ccc(O)cc2)N1CCc1ccccc1
[1]
  Ki: 43 nM
[2]
  Ki: 1 nM

## CC(C)(C)c1ccc(S(=O)(=O)NCCN2C(=N)N([C@@H](Cc3ccc(O)cc3)CN3C(=N)NC[C@@H]3CCCNC(=N)N)C[C@@H]2CCCNC(=N)N)cc1
[1]
  Ki: 49 nM
Mu-type opioid receptor
  Ki: 458 nM
[2]
  Ki: 84 nM

## CC(C)(C)c1ccc(S(=O)(=O)NCCN2C(=N)N([C@@H](CCCNC(=N)N)CN3C(=N)NC[C@@H]3CCCNC(=N)N)C[C@@H]2CCCNC(=N)N)cc1
[1]
  Ki: 93 nM
Mu-type opioid receptor
  Ki: 340 nM
[2]
  Ki: 7 nM

## CC(C)C[C@H]1CN2C(=CC3=NC[C@H](CN(C)C)N3C[C@@H]2Cc2ccc(O)cc2)N1CCc1ccccc1
[1]
  Ki: 47 nM
Mus musculus [8]
  Activity: Active; Comparable To Morphine And U50,490
Mus musculus [10]
  Activity: inactive
[29]
  Activity: Toxic
Mu-type opioid receptor
  Ki: 100 nM
Mus musculus [30]
  Activity: Active; Minimal Antinociception Observed
[31]
  Activity: Active
Mus musculus [14]
  Activity: inactive
[2]
  Ki: 5 nM
Mus musculus [17]
  Activity: inactive
[19]
  Activity: Active
[27]
  Activity: Not active; No Significant Activity

## CC(C)C[C@H]1CN2C(=CC3=NC[C@H](CC(C)C)N3C[C@@H]2Cc2ccc(O)cc2)N1CCN1CCOCC1
[1]
  Ki: 15 nM
Mu-type opioid receptor
  Ki: 157 nM
[2]
  Ki: 16 nM

## CC(C)[C@H]1CN=C2C=C3N(CCN4CCOCC4)[C@@H](Cc4ccc(O)cc4)CN3[C@@H](Cc3ccc(O)cc3)CN21
[1]
  Ki: 41 nM
Mu-type opioid receptor
  Ki: 51 nM
[2]
  Ki: 11 nM

## CC(C)C[C@H]1CN2C(=CC3=NC[C@H](CCN(C)C)N3C[C@@H]2Cc2ccc(O)cc2)N1CCc1ccccc1
[3]
  Activity: Non-toxic
[1]
  Ki: 24 nM
Mus musculus [4]
  Activity: 96.3%
[5]
  Ratio ED50: 10.73
Mus musculus [6]
  Activity: Time-dependent-effect
Mus musculus [8]
  Activity: Active; Comparable To Morphine And U50,488
Mus musculus [9]
  Activity: 1.2%
Mus musculus [10]
  Activity: inactive
Mu-type opioid receptor
  Ki: 212 nM
[11]
  Activity: Non-toxic
[12]
  Activity: Non-toxic
Mus musculus [13]
  ED50: 2.19 mg/kg
Mus musculus [14]
  Activity: inactive
Mus musculus [15]
  Activity: 42%
Mus musculus [16]
  ED50: 0.2 mg/kg
[2]
  Ki: 5 nM
Mus musculus [17]
  Activity: inactive
[18]
  Activity: Active; Weak Partial Agonism Observed
[27]
  Activity: Not active; No Significant Activity

## CC(C)C[C@H]1CN([C@@H](Cc2ccc(O)cc2)CN2C(=N)NC[C@@H]2CCCNC(=N)N)C(=N)N1CCNS(=O)(=O)c1ccc(C(C)(C)C)cc1
[1]
  Ki: 48 nM
Mu-type opioid receptor
  Ki: 120 nM
[2]
  Ki: 1 nM

## CC(C)[C@H]1CN=C2C=C3N(CCc4ccccc4)[C@@H](CCN(C)C)CN3[C@@H](Cc3ccc(O)cc3)CN21
[1]
  Ki: 20 nM
Mu-type opioid receptor
  Ki: 34 nM
[2]
  Ki: 8 nM

## CC(C)C[C@H]1CN=C2C=C3N(CCN4CCOCC4)[C@@H](Cc4ccc(O)cc4)CN3[C@@H](Cc3ccc(O)cc3)CN21
[1]
  Ki: 20 nM
Mu-type opioid receptor
  Ki: 108 nM
[2]
  Ki: 42 nM
